Patent publication US20110251135A1, “INHIBITORS OF PERITONEAL SEEDING OF CANCER CELLS” (University of Utah Research Foundation, priority 2008, published 2011)

Legend:
[1] = tested on: NF-κB; test: NF-κB electrophoretic mobility shift assay (EMSA), nuclear lysates of treated HT-29 cells; assay type: cell-based, human; conditions: 10 μM, 3 and 6 hour incubations
[2] = tested on: adherent HT-29 cells; test: Annexin V-FITC apoptosis assay, adherent cells; assay type: cell-based, human
Text: FIG. 3 is a group of graphs that show NF-κB inhibitors cause apoptosis of colon cancer cells. […] The data points represent the average percent of annexin V-positive, propidium iodide-negative cells (of the total cells counted) from triplicate experiments. The error bars represent the standard error of the means. […] The results shown are a graphic representation of individual flow cytometry results expressed as the percentage of cells that were annexin V-positive of those that excluded propidium iodide. […] An immunoblot of the lysates for cleaved PARP was performed. Each lane represents equal total protein concentrations. […] The cells were allowed to adhere to plastic dishes for 1 hour after which they were washed gently in PBS and stained with crystal violet. The crystal violet stained cells were solubilized in deoxycholate and the absorbance detected in a spectrophotometer at 590 nm. The adherent cells were expressed as a fraction of the controls. Each data point represents the average of triplicate experiments and the error bars the standard errors of the means.
(§1) The data points represent the means of triplicate experiments and the error bars the standard errors of the means. […] The percent of apoptotic cells was then determined by the annexin V assay. […] The results shown are typical of two separate experiments. […] Immunoblots were performed for c-IAP-2, TRAF-1, TRAF-2, and FLIP. All lanes contain equal total protein.
(§2) Single cell suspensions were plated at 100,000 cells per well in 24-well plates in media containing DMSO, BAY 11-7082, BAY 11-7085, or MG-132 for 8-24 hours in an incubator. Alternatively, DMSO, BAY 11-7082, BAY 11-7085, or MG-132 were added to cells that were confluent and adherent for several days. The nonadherent cells were aspirated off with the media and spun for 3 minutes at 2,000 rpm in 15 mL polypropylene tubes. The adherent cells were washed twice with PBS, dispersed in trypsin, and spun down for 3 minutes at 2,000 rpm in 15 mL polypropylene tubes. The nonadherent and adherent cells were resuspended in 1× binding buffer (10 mM HEPES/NaOH, pH 7.4, 140 mM NaCl, and 2.5 mM CaCl2) to a final concentration of 10^6 cells/mL. 100 μL of the cell solution were transferred to a 5 mL culture tube and incubated with 5 μL of annexin V-FITC-conjugated monoclonal antibody (Pharmingen) and 10 μl, of propidium iodide (from a 50 μg/mL stock solution made in PBS) in the dark at 25° C. for 15 minutes. 400 μL of binding buffer was added to each tube and the cells were analyzed by flow cytometry immediately. The percent of apoptosis was determined as the percent of annexin V-positive, propidium iodide-negative cells of the total cells counted.

[3] = tested on: JNK/SAPK and p38; conditions: Pierce et al., J Biol Chem 272:21096-103, 1997; cited from earlier work
[4] = tested on: DLD-1, HCT-116, HT-29 colon cancer cell lines; test: Cell proliferation assay (crystal violet, 96-well); assay type: cell-based, human
Description: as §1
For the cell proliferation assay, cells were dispersed and plated at 40,000 cells/well in 96-well dishes. At various days in culture, the cells were gently washed twice with 100 μL/well of ice-cold blocking buffer (1% radioimmunoassay grade BSA in PBS) and twice with 100 μL/well of ice-cold PBS. The cells were fixed for 10 min in 100% ice-cold methanol (100 μL/well), then allowed to air-dry. The cells were stained with 100 μL/well of 0.1% crystal violet in H20 for 10 minutes, then washed gently four times with dd H20 and four times with PBS. The plates were then air-dried completely. The stained cells were then solubilized in 1% sodium deoxycholate, and the plates read at 590 nm in a spectrophotometer. The absorption at 590 nm is proportional to the number of attached cells.

[5] = tested on: HT-29 xenografts; test: Subcutaneous colon cancer xenograft in athymic mice; assay type: in vivo, mouse; conditions: athymic mice; compound alone; cell line not given
Description: (§3) DLD-1, HCT-116, and HT-29 cells were cultured for 6 days in soft agar in the presence of DMSO (control), 10 μM BAY 11-7082, or 10 μM BAY 11-7085. The data points represent the means of colony counts per field (20×) performed in 5 different regions of the culture dishes. The data shown represent a typical result of two separate experiments. FIG. 2B and FIG. 2C are graphs that show athymic mice received subcutaneous injections of HT-29 (FIG. B) or HCT-116 (FIG. C) cells, followed by […] of BAY 11-7085 (dark bars) or DMSO (white bars) intraperitoneally twice weekly. The bars represent the 25-75% ranges of the tumor volumes and the horizontal lines in the bars are the medians. Using the Kruskal-Wallace statistical test to compare the median tumor volumes between BAY 11-7085 and DMSO yielded a p-value of 0.005 for HT-29 cells but >0.05 for HCT-116 cells.
HT-29 and HCT-116 cells were harvested in 0.25% trypsin-PBS-EDTA, washed once in media and PBS, and resuspended in PBS at 1 million cells per 200 μL. One million cells were injected either subcutaneously in the backs or intraperitoneally in 5 week old female nu/nu athymic mice (Charles River Labs). For the mice with subcutaneous tumors, the tumors were allowed to establish themselves for 10 days after which they were randomized to BAY 11-7085 or DMSO. For the mice with intraperitoneal tumors, the mice received DMSO or BAY 11-7085 (5 mg/kg) 24 hours before the cancer cells were injected intraperitoneally. […] Subcutaneous tumor sizes were determined by measuring the length and width with calipers. These studies were approved by the University of Utah Institutional Review Board and Institutional Animal Care and Use Committee and performed in the Animal Resource Center. Mice were euthanized when they experienced a greater than 10% loss in body weight or if they appeared ill. Post-mortem examinations included sectioning of kidney, lung, and liver tissues which were stained with hematoxylin and eosin followed by examination for tissue toxicity/damage by an experienced mouse pathologist (E.J.E.) who was blinded to therapy.
HCT-116 and HT-29 cell lines were used to generate subcutaneous tumors in athymic female mice. The mice were subsequently randomized to be treated with vehicle (DMSO) alone or BAY 11-7085 […] twice weekly for 28 days.

[6] = tested on: IκB phosphorylation and TNFα-induced NF-κB activation; conditions: Pierce et al., J Biol Chem 272:21096-103, 1997; cited from earlier work
[7] = tested on: HT-29 cells; test: Soft agar colony formation assay; assay type: cell-based, human; conditions: 10 μM for 6 days
Description: as §3
(§4) Anchorage-independent cell growth is a hallmark of cancer cells and is a good correlation to tumorigencity in vivo. Therefore, the effects of BAY 11-7082 and BAY 11-7085 were examined on colon cancer cell growth using the soft agar colony formation assay.

[8] = tested on: DLD-1 cells; test: Soft agar colony formation assay; assay type: cell-based, human; conditions: 10 μM for 6 days
Description: as §3, §4

[9] = tested on: HCT-116 cells; test: Soft agar colony formation assay; assay type: cell-based, human; conditions: 10 μM for 6 days
Description: as §3, §4

[10] = tested on: transiently suspended HT-29 cells; test: Apoptosis of transiently suspended cells during readhesion (annexin V assay); assay type: cell-based, human; conditions: for apoptosis of readhering HT-29 colon cancer cells: NF-κB inhibitors other than BAY 11-7085
Description: HT-29 cells that were either transiently suspended with trypsin-EDTA or adherent for three days, were treated at time zero with DMSO or 10-100 μM BAY 11-7085. The percent of apoptotic cells was determined using the annexin V flow cytometry assay and graphed versus the dose of BAY 11-7085. FIG. 4B are photographs showing DLD-1, FIG. 4C are photographs showing HCT-116, and FIG. 4D are photographs showing HT-29 cells that were transiently suspended in trypsin-EDTA and allowed to readhere to glass coverslips for 1-24 hours. The cells were fixed and immunostained with an NF-κB p65 subunit monoclonal antibody.
The transiently suspended cells were lysed and allowed to bind to DNA oligonucleotides, containing the NF-κB consensus binding site, that were immobilized to 96-well plates. NF-κB protein bound to the oligonucleotides was detected by an antibody to the p65 subunit that only recognized p65 that is bound to DNA. The positive control was HeLa cells that were stimulated with TNFα. A control was performed using excess free NF-κB oligonucleotides (Competitor). […] NF-κB binding activity was determined by the TransAM assay as in FIG. 5A. […] The data shown represent typical results of three separate experiments. […] An immunoblot for COX-2 was performed.
The percentage of apoptotic cells was determined using the annexin V assay. The data points represent the averages of three experiments; bars, +−.SE. E. DLD-1 and F. HT-29 cells were transduced with an adenovirus containing the IκB super-repressor construct. After 3 days, the cells were transiently suspended and allowed to readhere in the presence of subapoptotic concentrations of BAY 11-7085 or DMSO (vehicle) for 8 hours. The data are expressed as fractions of cells surviving compared with the controls (no adenovirus) and were quantitatively determined by staining the remaining adherent cells with crystal violet.
as §2
Various concentrations of BAY 11-7085 were added to HT-29 cells that were transiently suspended in trypsin-PBS for approximately 15 minutes before replating. The transiently suspended cells were quickly allowed to readhere in order to prevent anoikis. Alternatively, BAY 11-7085 was added to adherent HT-29 cell monolayers.

[11] = tested on: colon and pancreatic cancer cells; test: Apoptosis of colon and pancreatic cancer cells during readhesion; assay type: cell-based, human; conditions: not shown

Cc1ccc(S(=O)(=O)/C=C/C#N)cc1 [BAY 11-7082, (2E)-3-(tolylsulfonyl)-2-propenenitrile]
inhibition of NF-κB activity (EMSA) [1]: more profound inhibition of NF-κB activity occurred with BAY 11-7085 than BAY 11-7082
level of apoptosis (annexin V-positive, propidium iodide-negative cells) ([2]; adherent HT-29, 24 hours, BAY compounds at doses up to 20, MG-132 20 μM): caused an increase in the level of apoptosis
activation of JNK/SAPK and p38 [3]: activate JNK/SAPK and p38
cell proliferation ([4]; 10 μM, cultured up to 8 days): but not BAY 11-7082 greatly inhibited cell proliferation
colon cancer xenograft growth [5]: inhibit colon cancer xenograft growth
IκB phosphorylation and TNFα-induced NF-κB activation [6]: inhibit IκB phosphorylation and TNFα-induced NF-κB activation
anchorage-independent proliferation [7]: significantly inhibited
anchorage-independent proliferation [8]: significantly inhibited
anchorage-independent proliferation [9]: but not HCT-116

S=C(S)N1CCCC1 [PDTC, pyrrolidine dithiocarbamate]
induction of apoptosis of HT-29 cells during readhesion ([10]; various concentrations, 4 hours, compared with BAY 11-7085): caused apoptosis of HT-29 cells during readhesion

CC(C)C[C@H](NC(=O)[C@H](Cc1ccccc1)NC(=O)c1cnccn1)B(O)O [bortezomib]
apoptosis of colon and pancreatic cancer cells during readhesion [11]: failed to induced apoptosis
apoptosis of readhering HT-29 colon cancer cells [10]: failed to induce apoptosis

cA2: antagonistic and chimeric TNFα monoclonal antibody, inhibits TNFα binding to TNFα receptors
effect of cA2 pretreatment on BAY 11-7085-induced apoptosis ([2]; HT-29, 50 μg/mL cA2 for 48 hours, then 20 μM BAY 11-7085 for 24 hours): did not diminish BAY 11-7085-induced apoptosis
colon cancer cell proliferation ([4]; cA2 at 10 and 50 μg/mL, after several days of treatment): caused a significant inhibition of colon cancer cell proliferation

infliximab
apoptosis of colon and pancreatic cancer cells during readhesion [11]: failed to induced apoptosis
apoptosis of readhering HT-29 colon cancer cells [10]: failed to induce apoptosis
